Source: patent US20090221607A1, “Piperazine Derivatives” (M's Science Corporation, priority 2006, published 2009)
Structures can show the parent of a compound that is named as a salt.

Target: T1, σ1 receptors (Homo sapiens, UniProt Q99720)
T1 construct: endogenous in cells; host or cells: HEK-293 cell membranes
Test: σ1 receptor binding assay ((+)-[3H]pentazocine displacement, HEK-293 cell membranes)
Conditions: 10 nM (+)-[3H]-pentazocine, 120 min at 37° C.
Method: Sigma-1 (σ1) and sigma-2 (σ2) receptor binding assays are carried out in membranes from HEK-293 (Human Embryonic Kidney) cells.
Confluent HEK-293 cells are harvested in PBS/5 mM EDTA. They are centrifuged at 2000 rpm for 5 min and then washed two times in PBS. Cells are homogenized in 20 mM Tris-HCL (pH=7.5) containing 5 mM EDTA, 0.5 mM PMSF and 0.5 μg/mL leupeptin using a Dounce homogenizer and sonicated for 5 minutes.
Nuclear debris and intact cells are removed by centrifugation at 3000 rpm for 10 minutes at 4° C. The supernatant is centrifuged at 12000 rpm for 30 minutes and the resulting pellet is resuspended in 25 mM Tris-HCL (pH=7.5), 25 mM Mg2Cl, 10% sucrose containing 0.5 mM PMSF, 2 mM AEBSF, 1 mM EDTA, 130 μM bestatin, 14 μM E-64, 1 μM leupeptin and […] aprotinin.
Proteins are determined using the Bio Rad Protein Assay Dye Reagent and the membranes are aliquoted and frozen at −80° C. […]
Total binding is determined by incubating 50 μg of HEK-293 cell membranes with 10 nM (+)-[^3H]-pentazocine (Perkin-Elmer, 35 Ci/mmol) and assay buffer (50 mM Tris-HCl, pH=8.3) in a total volume of 200 μl. Non specific binding is determined in the presence of 10 μM unlabeled pentazocine. […] The filters are washed three times and the membrane-bound radioactivity is determined in a Microbeta scintillation counter. […]
Specific binding is determined by subtraction of non specific binding from total binding. […]

T1 sequence (Q99720 whole entry): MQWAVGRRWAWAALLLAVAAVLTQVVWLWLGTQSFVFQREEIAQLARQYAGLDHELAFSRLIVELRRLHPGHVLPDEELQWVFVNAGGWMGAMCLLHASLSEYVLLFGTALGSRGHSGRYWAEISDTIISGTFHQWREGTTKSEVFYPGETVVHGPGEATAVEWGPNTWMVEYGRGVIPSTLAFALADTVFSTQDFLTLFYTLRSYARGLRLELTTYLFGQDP

Compound	IC50 [nM]
Fc1ccc(OCCN2CCN(CCOc3ccc(F)cc3)CC2)cc1 [1,4-bis-[2-(4-fluorophenoxy)ethyl]piperazine]	< 700
Fc1ccccc1OCCN1CCN(CCOc2ccccc2F)CC1 [Example 1, 1,4-Bis-[2-(2-fluorophenoxy)ethyl]piperazine dihydrochloride]	< 700
